Laboratory results taken from patent US10040759B2, “Substituted azetidinyl compounds as GlyT1 inhibitors” (DART NEUROSCIENCE (CAYMAN) LTD., priority 2014, dated 2018).

Target: T1, GlyT1 (Homo sapiens, UniProt P48067)
T1 construct: expressed in transfected cells
T1 sequence (P48067 1-706): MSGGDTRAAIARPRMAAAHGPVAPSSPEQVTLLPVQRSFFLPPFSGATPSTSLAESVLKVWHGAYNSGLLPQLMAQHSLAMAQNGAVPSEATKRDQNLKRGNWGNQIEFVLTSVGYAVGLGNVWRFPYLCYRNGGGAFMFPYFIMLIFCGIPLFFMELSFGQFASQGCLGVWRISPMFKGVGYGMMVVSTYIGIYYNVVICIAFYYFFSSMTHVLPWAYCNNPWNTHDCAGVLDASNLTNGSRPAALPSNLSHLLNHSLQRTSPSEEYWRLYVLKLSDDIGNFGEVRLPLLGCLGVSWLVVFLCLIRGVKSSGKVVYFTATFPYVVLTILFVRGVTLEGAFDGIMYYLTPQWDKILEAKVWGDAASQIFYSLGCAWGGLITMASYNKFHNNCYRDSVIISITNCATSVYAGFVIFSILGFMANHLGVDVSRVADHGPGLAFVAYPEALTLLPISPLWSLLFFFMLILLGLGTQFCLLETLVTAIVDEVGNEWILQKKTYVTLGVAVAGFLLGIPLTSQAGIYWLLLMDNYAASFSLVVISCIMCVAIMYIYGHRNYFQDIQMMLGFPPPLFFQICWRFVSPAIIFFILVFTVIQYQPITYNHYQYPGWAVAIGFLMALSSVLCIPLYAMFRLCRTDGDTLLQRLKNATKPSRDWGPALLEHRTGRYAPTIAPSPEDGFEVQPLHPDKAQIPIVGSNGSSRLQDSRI
Experiment: Glycine Transporter 1 (GlyT1) uptake assay, scintillation proximity assay of [14C]-glycine uptake
Format: cell-based
Conditions: [14C]-glycine uptake; read-out: GlyT1 (pIC50) (converted)
Outline: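 IC50 values were derived by four-parameter logistic fitting of counts. The 2× compound solutions were made by 1:100 dilution into HBSS of DMSO serial dilutions.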

**Q.** How did the IC50 turn out when COc1c(S(C)(=O)=O)ccc(OC(C)C(F)(F)F)c1C(=O)N1CC(Oc2ccc(F)c(F)c2)C1 (centres unmarked) [Example 180, 3-(3,4-Difluorophenoxy)-1-({3-methanesulfonyl-2-methoxy-6-[(1,1,1-trifluoropropan-2-yl)oxy]phenyl}carbonyl)azetidine] was run?
**A.** < 100 nM

**Q.** How did the IC50 turn out when COc1c(C#N)ccc(OC(C)C(F)(F)F)c1C(=O)N1CC(c2cccc(C(F)(F)F)c2)C1 (centres unmarked) [Example 99, 2-Methoxy-3-({3-[3-(trifluoromethyl)phenyl]azetidin-1-yl}carbonyl)-4-[(1,1,1-trifluoropropan-2-yl)oxy]benzonitrile] was run?
**A.** < 100 nM

**Q.** With COc1c(S(C)(=O)=O)ccc(O[C@@H](C)C(F)(F)F)c1C(=O)N1CC(c2ccc([N+](=O)[O-])cc2)C1 [Example 148, 1-(3-Methanesulfonyl-2-methoxy-6-{[(2S)-1,1,1-trifluoropropan-2-yl]oxy}benzoyl)-3-(4-nitrophenyl)azetidine] as the compound, how does the IC50 read?
**A.** < 100 nM

**Q.** How did the IC50 turn out when COc1cc(C#N)ccc1C1CN(C(=O)c2c(O[C@@H](C)C(F)(F)F)ccc(C#N)c2OC)C1 [Example 128, 3-{[3-(4-Cyano-2-methoxyphenyl)azetidin-1-yl]carbonyl}-2-methoxy-4-{[(2S)-1,1,1-trifluoropropan-2-yl]oxy}benzonitrile] was run?
**A.** < 100 nM

**Q.** How did the IC50 turn out when COc1c(C#N)ccc(OC(C)C(F)(F)F)c1C(=O)N1CC(c2ccc(Cl)cc2)C1 (centres unmarked) [Example 97, 3-{[3-(4-Chlorophenyl)azetidin-1-yl]carbonyl}-2-methoxy-4-[(1,1,1-trifluoropropan-2-yl)oxy]benzonitrile] was run?
**A.** 100 to 1000 nM

**Q.** For COc1c(S(C)(=O)=O)ccc(OC(C)C)c1C(=O)N1CC(c2ccc(C(F)(F)F)cn2)C1 [Example 213, 2-{1-[3-Methanesulfonyl-2-methoxy-6-(propan-2-yloxy)benzoyl]azetidin-3-yl}-5-(trifluoromethyl)pyridine], which IC50 is on record?
**A.** 100 to 1000 nM

**Q.** How did the IC50 turn out when COc1c(C#N)ccc(OC(C)C(F)(F)F)c1C(=O)N1CC(c2ccccc2C(F)(F)F)C1 (centres unmarked) [Example 90, 2-Methoxy-3-({3-[2-(trifluoromethyl)phenyl]azetidin-1-yl}carbonyl)-4-[(1,1,1-trifluoropropan-2-yl)oxy]benzonitrile] was run?
**A.** < 100 nM

**Q.** For COc1c(C#N)ccc(C2(F)CCC(F)(F)CC2)c1C(=O)N1CC(c2ccc(C#N)cc2Cl)C1 [Example 133, 3-{[3-(2-Chloro-4-cyanophenyl)azetidin-1-yl]carbonyl}-2-methoxy-4-(1,4,4-trifluorocyclohexyl)benzonitrile], which IC50 is on record?
**A.** < 100 nM

**Q.** How did the IC50 turn out when COc1c(S(C)(=O)=O)ccc(O[C@@H](C)C(F)(F)F)c1C(=O)N1CC(Oc2c(F)cc(F)cc2F)C1 [Example 59, 1-(3-Methanesulfonyl-2-methoxy-6-{[(2S)-1,1,1-trifluoropropan-2-yl]oxy}benzoyl)-3-(2,4,6-trifluorophenoxy)azetidine] was run?
**A.** < 100 nM

**Q.** For COc1c(S(C)(=O)=O)ccc(OCC(C)(C)C)c1C(=O)N1CC(Oc2cc(F)c(F)cc2F)C1 [Example 241, 1-[6-(2,2-Dimethylpropoxy)-3-methanesulfonyl-2-methoxybenzoyl]-3-(2,4,5-trifluorophenoxy)azetidine], which IC50 is on record?
**A.** 100 to 1000 nM

**Q.** For COc1c(S(C)(=O)=O)ccc(OCC(F)(F)F)c1C(=O)N1CC(Oc2ccc(C(F)(F)F)cc2)C1 [Example 223, 1-[3-Methanesulfonyl-2-methoxy-6-(2,2,2-trifluoroethoxy)benzoyl]-3-[4-(trifluoromethyl)phenoxy]azetidine], which IC50 is on record?
**A.** 100 to 1000 nM

**Q.** CCOc1ccc(C#N)c(OC)c1C(=O)N1CC(c2ccc(C3CCOCC3)cn2)C1 [Example 165, 4-Ethoxy-2-methoxy-3-{3-[5-(oxan-4-yl)pyridin-2-yl]azetidine-1-carbonyl}benzonitrile] was tested. Which IC50 did it give?
**A.** < 100 nM

**Q.** For COc1c(C#N)ccc(OCC2CC2)c1C(=O)N1CC(c2ccc(C#N)cc2)C1 [Example 173, 3-{[3-(4-Cyanophenyl)azetidin-1-yl]carbonyl}-4-(cyclopropylmethoxy)-2-methoxybenzonitrile], which IC50 is on record?
**A.** < 100 nM

**Q.** For COc1c(C#N)ccc(OC(C)C(F)(F)F)c1C(=O)N1CC(c2ccc(F)cc2)C1 (centres unmarked) [Example 91, 3-{[3-(4-Fluorophenyl)azetidin-1-yl]carbonyl}-2-methoxy-4-[(1,1,1-trifluoropropan-2-yl)oxy]benzonitrile], which IC50 is on record?
**A.** < 100 nM

**Q.** COc1c(C#N)ccc(C2(F)CCOCC2)c1C(=O)N1CC(c2cccc(C(F)(F)F)c2)C1 [Example 23, 4-(4-Fluorooxan-4-yl)-2-methoxy-3-({3-[3-(trifluoromethyl)phenyl]azetidin-1-yl}carbonyl)benzonitrile] was tested. Which IC50 did it give?
**A.** 100 to 1000 nM

**Q.** How did the IC50 turn out when COc1c(C#N)ccc(O[C@@H](C)C(F)(F)F)c1C(=O)N1CC(Oc2ccncc2)C1 [Example 35, 2-Methoxy-3-{[3-(pyridin-4-yloxy)azetidin-1-yl]carbonyl}-4-{[(2S)-1,1,1-trifluoropropan-2-yl]oxy}benzonitrile] was run?
**A.** < 100 nM

**Q.** Which IC50 does the source give for Cc1ccc(OC2CN(C(=O)c3c(OC(C)C(F)(F)F)ccc(C#N)c3Cl)C2)cc1 (centres unmarked) [Example 77, 2-Chloro-3-{[3-(4-methylphenoxy)azetidin-1-yl]carbonyl}-4-[(1,1,1-trifluoropropan-2-yl)oxy]benzonitrile] here?
**A.** 1000 to 10000 nM

**Q.** With COc1c(C#N)ccc(OC(C)C(F)(F)F)c1C(=O)N1CC(c2ccc(C(F)(F)F)cn2)C1 (centres unmarked) [Example 36, 2-Methoxy-3-({3-[5-(trifluoromethyl)pyridin-2-yl]azetidin-1-yl}carbonyl)-4-[(1,1,1-trifluoropropan-2-yl)oxy]benzonitrile] as the compound, how does the IC50 read?
**A.** 100 to 1000 nM

**Q.** For COc1c(S(C)(=O)=O)ccc(O[C@@H](C)C(F)(F)F)c1C(=O)N1CC(c2cc(C)ccc2F)C1 [Example 42, 3-(2-Fluoro-5-methylphenyl)-1-(3-methanesulfonyl-2-methoxy-6-{[(2S)-1,1,1-trifluoropropan-2-yl]oxy}benzoyl)azetidine], which IC50 is on record?
**A.** < 100 nM

**Q.** With COc1c(C#N)ccc(O[C@@H](C)C(F)(F)F)c1C(=O)N1CC(c2ccc(C#N)cc2)C1 [Example 108, 3-{[3-(4-Cyanophenyl)azetidin-1-yl]carbonyl}-2-methoxy-4-{[(2S)-1,1,1-trifluoropropan-2-yl]oxy}benzonitrile] as the compound, how does the IC50 read?
**A.** 1000 to 10000 nM

**Q.** Which IC50 does the source give for COc1c(S(C)(=O)=O)ccc(O[C@@H](C)C(F)(F)F)c1C(=O)N1CC(c2cc(F)c(F)cc2Cl)C1 [Example 254, 3-(2-Chloro-4,5-difluorophenyl)-1-(3-methanesulfonyl-2-methoxy-6-{[(2S)-1,1,1-trifluoropropan-2-yl]oxy}benzoyl)azetidine] here?
**A.** < 100 nM

**Q.** For COc1c(C#N)ccc(C2(F)CCOCC2)c1C(=O)N1CC(c2ccc(F)c(F)c2)C1 [Example 21, 3-{[3-(3,4-Difluorophenyl)azetidin-1-yl]carbonyl}-4-(4-fluorooxan-4-yl)-2-methoxybenzonitrile], which IC50 is on record?
**A.** 1000 to 10000 nM

**Q.** For COc1c(C#N)ccc(O[C@@H](C)C(F)(F)F)c1C(=O)N1CC(c2ccc(C(F)(F)F)nc2)C1 [Example 31, 2-Methoxy-3-({3-[6-(trifluoromethyl)pyridin-3-yl]azetidin-1-yl}carbonyl)-4-{[(2S)-1,1,1-trifluoropropan-2-yl]oxy}benzonitrile], which IC50 is on record?
**A.** 100 to 1000 nM
